We go through three compounds from BindingDB's records for patent US10370339 (Bayer Pharma Aktiengesellschaft, 2019).

Broadly, the IC50 is the concentration needed to halve the response being measured.

Sequence of Isocitrate dehydrogenase [NADP] cytoplasmic [R132H] (O75874 2-414 R132H limits assumed): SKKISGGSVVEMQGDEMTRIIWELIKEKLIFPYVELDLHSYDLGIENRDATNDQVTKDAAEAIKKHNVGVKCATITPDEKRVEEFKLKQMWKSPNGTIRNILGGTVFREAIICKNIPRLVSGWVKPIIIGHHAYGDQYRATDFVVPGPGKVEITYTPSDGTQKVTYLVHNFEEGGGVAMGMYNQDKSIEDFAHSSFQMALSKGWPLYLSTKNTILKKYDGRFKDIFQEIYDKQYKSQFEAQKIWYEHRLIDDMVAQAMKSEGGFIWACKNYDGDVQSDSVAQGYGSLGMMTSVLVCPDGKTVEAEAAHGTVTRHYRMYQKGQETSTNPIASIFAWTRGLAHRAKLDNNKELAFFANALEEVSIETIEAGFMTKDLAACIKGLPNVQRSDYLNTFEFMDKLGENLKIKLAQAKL

The test addresses Isocitrate dehydrogenase [NADP] cytoplasmic [R132H] (Homo sapiens, UniProt O75874, R132H). Kind of test: Biological Assay. As to the method: Mutant IDH1 R132H Biochemical Assay mIDH1 catalyzes the NADPH-dependent reduction of alpha-ketoglutarate (a-KG) to (2R)-2-hydroxyglutarate (2-HG). NADPH consumption was measured by luminescent readout.The biochemical reactions were performed at 32° C. in 384-well plates using a reaction volume of 41 μL and the following assay buffer conditions: 50 mM Tris pH 7.5, 100 mM NaCl, 20 mM MgCl2, 0.05% BSA, 0.01% Brij, 1 μM NADPH, and 250 μM α-KG. The IDH1 R132H enzyme was used in a final concentration of 1.5 nM. Test compounds were used in a concentration range between 0.002 and 10 μM. The final DMSO concentration was 2.4%.The reaction was incubated for 30 minutes, then 40 μL of detection mix (0.75 μg/ml Luciferase, 0.02 U/ml Oxidoreductase, 4 μg/mL FMN, 2 μL/ml decanal/ethanol, 50 mM Tris pH 7.5, 0.5% Glycerin, 0.01% Tween-20, 0.05% BSA) was added. Luminescence was measured on a luminescent reader (10 seconds measuring time, 1 second integration period, 30% sensitivity). The decrease in luminescence is proportional to mIDH1 activity. IC50 values are determined by interpolation from plots of relative luminescence versus inhibitor concentration.
Compound `CC(C)[C@@H]1CC[C@@H](C)C[C@H]1n1c(Nc2ccc(OC(F)(F)F)cc2)nc2cc(CC(=O)O)ccc21` [US10370339, Example 2-31] yielded an IC50 of 14 nM.

Take `COc1cc2c(cc1CCC(=O)O)nc(Nc1ccc(C(C)C)cc1)n2[C@@H]1C[C@H](C)CC[C@H]1C(C)C` [US10370339, Example 2-48]: the IC50 was determined as 11 nM.

`COc1cc2c(cc1C(=O)O)nc(Nc1ccc(OC(C)C)cc1)n2[C@@H]1C[C@H](C)CC[C@H]1C(C)C` [US10370339, Example 2-30]: it took 15 nM to reach half-maximal inhibition (IC50).
